# Experimental data reported in PubChem BioAssay (NCI).
#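 Exposure lasted 48 hours, with cells grown in 96-well plates and compounds tested at five concentrations. GI50 marks 50% less growth. At the TGI there is no net growth.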
# Tested on: HCT-15 colon
# Experiment: NCI tumour cell line growth inhibition, 48 h
SMILES,GI50,TGI
C=C1CC[C@@H]2[C@](C)(COC(C)=O)[C@H](OC(C)=O)CC[C@@]2(C)[C@@H]1CC(Sc1ccccc1)C1=CCOC1=O (stereo not given in full),0.877 µM,2.59 µM
CN(C)CCCNC(=O)c1cc2[nH]c3c(cnc4ccc([N+](=O)[O-])cc43)c(=O)c2n1C,15.2 µM,31.8 µM

# Tested on: MOLT-4 leukemia
# Experiment: NCI tumour cell line growth inhibition, 48 h
SMILES,GI50,TGI
Cn1c2ccccc2c2c3c(c4c5cc(Br)ccc5n(C)c4c21)C(=O)N(O)C3=O,0.0474 µM,0.275 µM
C=C1CC[C@@H]2[C@](C)(COC(C)=O)[C@H](OC(C)=O)CC[C@@]2(C)[C@@H]1CC(Sc1ccccc1)C1=CCOC1=O (stereo not given in full),1.48 µM,6.15 µM
CN(C)CCCNC(=O)c1cc2[nH]c3c(cnc4ccc([N+](=O)[O-])cc43)c(=O)c2n1C,13.5 µM,33.9 µM

# Tested on: KM12 colon
# Experiment: NCI tumour cell line growth inhibition, 48 h
SMILES,GI50,TGI
C=C(CNCc1ccccc1)c1ccc(C(=O)Nc2ccccc2N)cc1,4.05 µM,21.3 µM
Cn1c2ccccc2c2c3c(c4c5cc(Br)ccc5n(C)c4c21)C(=O)N(O)C3=O,0.426 µM,> 100 µM
C=C1CC[C@@H]2[C@](C)(COC(C)=O)[C@H](OC(C)=O)CC[C@@]2(C)[C@@H]1CC(Sc1ccccc1)C1=CCOC1=O (stereo not given in full),1.4 µM,2.96 µM
CN(C)CCCNC(=O)c1cc2[nH]c3c(cnc4ccc([N+](=O)[O-])cc43)c(=O)c2n1C,12 µM,25.2 µM

# Tested on: RPMI-8226 leukemia
# Experiment: NCI tumour cell line growth inhibition, 48 h
SMILES,GI50,TGI
C=C(CNCc1ccccc1)c1ccc(C(=O)Nc2ccccc2N)cc1,3.08 µM,> 100 µM
C=C1CC[C@@H]2[C@](C)(COC(C)=O)[C@H](OC(C)=O)CC[C@@]2(C)[C@@H]1CC(Sc1ccccc1)C1=CCOC1=O (stereo not given in full),0.343 µM,2.73 µM
CN(C)CCCNC(=O)c1cc2[nH]c3c(cnc4ccc([N+](=O)[O-])cc43)c(=O)c2n1C,5.83 µM,19.3 µM

# Tested on: OVCAR-4 ovarian
# Experiment: NCI tumour cell line growth inhibition, 48 h
SMILES,GI50,TGI
C=C(CNCc1ccccc1)c1ccc(C(=O)Nc2ccccc2N)cc1,11.7 µM,68.1 µM
C=C1CC[C@@H]2[C@](C)(COC(C)=O)[C@H](OC(C)=O)CC[C@@]2(C)[C@@H]1CC(Sc1ccccc1)C1=CCOC1=O (stereo not given in full),1.36 µM,3.11 µM
CN(C)CCCNC(=O)c1cc2[nH]c3c(cnc4ccc([N+](=O)[O-])cc43)c(=O)c2n1C,14 µM,31.6 µM

# Tested on: HT29 colon
# Experiment: NCI tumour cell line growth inhibition, 48 h
SMILES,GI50,TGI
C=C1CC[C@@H]2[C@](C)(COC(C)=O)[C@H](OC(C)=O)CC[C@@]2(C)[C@@H]1CC(Sc1ccccc1)C1=CCOC1=O (stereo not given in full),1.77 µM,3.77 µM
CN(C)CCCNC(=O)c1cc2[nH]c3c(cnc4ccc([N+](=O)[O-])cc43)c(=O)c2n1C,5.93 µM,18.6 µM

# Tested on: MDA-MB-435
# Experiment: NCI tumour cell line growth inhibition, 48 h
SMILES,GI50,TGI
C=C(CNCc1ccccc1)c1ccc(C(=O)Nc2ccccc2N)cc1,5.24 µM,27.7 µM
Cn1c2ccccc2c2c3c(c4c5cc(Br)ccc5n(C)c4c21)C(=O)N(O)C3=O,0.319 µM,> 100 µM
C=C1CC[C@@H]2[C@](C)(COC(C)=O)[C@H](OC(C)=O)CC[C@@]2(C)[C@@H]1CC(Sc1ccccc1)C1=CCOC1=O (stereo not given in full),1.41 µM,3.58 µM
CN(C)CCCNC(=O)c1cc2[nH]c3c(cnc4ccc([N+](=O)[O-])cc43)c(=O)c2n1C,17.3 µM,33.6 µM

# Tested on: U251 CNS
# Experiment: NCI tumour cell line growth inhibition, 48 h
SMILES,GI50,TGI
C=C(CNCc1ccccc1)c1ccc(C(=O)Nc2ccccc2N)cc1,9.86 µM,> 100 µM
Cn1c2ccccc2c2c3c(c4c5cc(Br)ccc5n(C)c4c21)C(=O)N(O)C3=O,0.0499 µM,0.489 µM
C=C1CC[C@@H]2[C@](C)(COC(C)=O)[C@H](OC(C)=O)CC[C@@]2(C)[C@@H]1CC(Sc1ccccc1)C1=CCOC1=O (stereo not given in full),1.56 µM,2.96 µM
CN(C)CCCNC(=O)c1cc2[nH]c3c(cnc4ccc([N+](=O)[O-])cc43)c(=O)c2n1C,17.5 µM,31.3 µM

# Tested on: HCC-2998 colon
# Experiment: NCI tumour cell line growth inhibition, 48 h
SMILES,GI50,TGI
C=C(CNCc1ccccc1)c1ccc(C(=O)Nc2ccccc2N)cc1,2.22 µM,5.4 µM
Cn1c2ccccc2c2c3c(c4c5cc(Br)ccc5n(C)c4c21)C(=O)N(O)C3=O,1.01 µM,> 100 µM
C=C1CC[C@@H]2[C@](C)(COC(C)=O)[C@H](OC(C)=O)CC[C@@]2(C)[C@@H]1CC(Sc1ccccc1)C1=CCOC1=O (stereo not given in full),2.1 µM,4.07 µM
CN(C)CCCNC(=O)c1cc2[nH]c3c(cnc4ccc([N+](=O)[O-])cc43)c(=O)c2n1C,15.6 µM,29 µM

# Tested on: NCI/ADR-RES ovarian
# Experiment: NCI tumour cell line growth inhibition, 48 h
SMILES,GI50,TGI
C=C(CNCc1ccccc1)c1ccc(C(=O)Nc2ccccc2N)cc1,3.21 µM,18.8 µM
Cn1c2ccccc2c2c3c(c4c5cc(Br)ccc5n(C)c4c21)C(=O)N(O)C3=O,0.0926 µM,> 100 µM
C=C1CC[C@@H]2[C@](C)(COC(C)=O)[C@H](OC(C)=O)CC[C@@]2(C)[C@@H]1CC(Sc1ccccc1)C1=CCOC1=O (stereo not given in full),2.1 µM,11 µM
CN(C)CCCNC(=O)c1cc2[nH]c3c(cnc4ccc([N+](=O)[O-])cc43)c(=O)c2n1C,22 µM,49.6 µM

# Tested on: COLO 205 colon
# Experiment: NCI tumour cell line growth inhibition, 48 h
SMILES,GI50,TGI
C=C(CNCc1ccccc1)c1ccc(C(=O)Nc2ccccc2N)cc1,4.9 µM,38.5 µM
C=C1CC[C@@H]2[C@](C)(COC(C)=O)[C@H](OC(C)=O)CC[C@@]2(C)[C@@H]1CC(Sc1ccccc1)C1=CCOC1=O (stereo not given in full),1.49 µM,3.98 µM
CN(C)CCCNC(=O)c1cc2[nH]c3c(cnc4ccc([N+](=O)[O-])cc43)c(=O)c2n1C,16.5 µM,30.1 µM

# Tested on: SF-268 CNS
# Experiment: NCI tumour cell line growth inhibition, 48 h
SMILES,GI50,TGI
C=C(CNCc1ccccc1)c1ccc(C(=O)Nc2ccccc2N)cc1,7.43 µM,45.6 µM
C=C1CC[C@@H]2[C@](C)(COC(C)=O)[C@H](OC(C)=O)CC[C@@]2(C)[C@@H]1CC(Sc1ccccc1)C1=CCOC1=O (stereo not given in full),1.71 µM,3.55 µM
CN(C)CCCNC(=O)c1cc2[nH]c3c(cnc4ccc([N+](=O)[O-])cc43)c(=O)c2n1C,15.9 µM,29.4 µM

# Tested on: OVCAR-8 ovarian
# Experiment: NCI tumour cell line growth inhibition, 48 h
SMILES,GI50,TGI
C=C(CNCc1ccccc1)c1ccc(C(=O)Nc2ccccc2N)cc1,2.17 µM,> 100 µM
Cn1c2ccccc2c2c3c(c4c5cc(Br)ccc5n(C)c4c21)C(=O)N(O)C3=O,0.113 µM,> 100 µM
C=C1CC[C@@H]2[C@](C)(COC(C)=O)[C@H](OC(C)=O)CC[C@@]2(C)[C@@H]1CC(Sc1ccccc1)C1=CCOC1=O (stereo not given in full),1.46 µM,4.7 µM
CN(C)CCCNC(=O)c1cc2[nH]c3c(cnc4ccc([N+](=O)[O-])cc43)c(=O)c2n1C,20.2 µM,43.2 µM

# Tested on: HOP-62 NSCLC
# Experiment: NCI tumour cell line growth inhibition, 48 h
SMILES,GI50,TGI
C=C(CNCc1ccccc1)c1ccc(C(=O)Nc2ccccc2N)cc1,4.57 µM,> 100 µM
C=C1CC[C@@H]2[C@](C)(COC(C)=O)[C@H](OC(C)=O)CC[C@@]2(C)[C@@H]1CC(Sc1ccccc1)C1=CCOC1=O (stereo not given in full),2.89 µM,5.52 µM
CN(C)CCCNC(=O)c1cc2[nH]c3c(cnc4ccc([N+](=O)[O-])cc43)c(=O)c2n1C,17.2 µM,30.9 µM

# Tested on: RXF 393 renal
# Experiment: NCI tumour cell line growth inhibition, 48 h
SMILES,GI50,TGI
C=C(CNCc1ccccc1)c1ccc(C(=O)Nc2ccccc2N)cc1,1.87 µM,24.1 µM
Cn1c2ccccc2c2c3c(c4c5cc(Br)ccc5n(C)c4c21)C(=O)N(O)C3=O,0.217 µM,0.703 µM
C=C1CC[C@@H]2[C@](C)(COC(C)=O)[C@H](OC(C)=O)CC[C@@]2(C)[C@@H]1CC(Sc1ccccc1)C1=CCOC1=O (stereo not given in full),1.62 µM,3.12 µM
CN(C)CCCNC(=O)c1cc2[nH]c3c(cnc4ccc([N+](=O)[O-])cc43)c(=O)c2n1C,4.88 µM,18.7 µM
